The values that follow come from patent publication US11241501B2, “Anticancer prodrug for overcoming drug resistance” (Korea University Research and Business Foundation, priority 2018, dated 2022).

Data set [1] has as its system MCF7 and MCF7/Dox cells. Description: Mitochondrial localization in MCF7 and MCF7/Dox cells. It is filed as cell-based, human. An excerpt: Mito-tracker (green) was utilized to show the mitochondria;
Data set [2] deals with MCF7/Dox cells. Put plainly: Assessment of mitochondrial membrane potential (CLSM). It is filed as cell-based, human. The note with it: 5 μM, 48 h. How it is done:
To assess the mitochondrial membrane potential, MCF-7/Dox cells (5×10^3 cells) were seeded in glass-bottomed dishes and treated with 5 μM compound C1, C3, DCA, and/or doxorubicin for 48 h. After incubation, the cells were stained with 2 ml of a PBS solution containing 20 μM Mitoview™ 633 (Biotium, USA) and 100 nM Hoechst® 33342 (ThermoFisher, USA) for 30 min at 37° C. with 5% CO2. Fluorescence was detected using a Zeiss LSM 700 confocal laser scanning microscope (Carl Zeiss).

Data set [3] concerns p21^Waf1 and phosphorylated PDH levels. Put plainly: Immunoblot assay of p21Waf1 and phosphorylated PDH. It is filed as cell-based, human. Here is the method: HepG2 cells treated with each compound (5 μM, 24 hr) were co-stained with the mitochondrial marker MitoTracker (green). Boxed regions show co-localization of the test compounds and probe within the mitochondria. […] Experiments were carried out in triplicate and the data shown represent means±SD. **p<0.01. […] HepG2 cells were incubated with BNPP (100 μM) for 2 hr prior to C1 treatment. **p<0.01. […] Cleaved caspase-3 and PARP-1 levels were examined to assess apoptosis induction. C, cleaved.
Immunoblot analyses were performed using antibodies specific for phosphorylated serine 293 PDH-EI (ab92696), p21^Waf1 (sc-397), cleaved PARP (5625), cleaved caspase-3 (9664), COX-IV (4850), and Cytochrome c (4280). They were purchased from Abcam (Cambridge, UK), Santa Cruz Biotechnology (Texas, USA) or Cell Signaling Technology (Massachusetts, USA). Anti-tubulin antibodies were obtained from Sigma-Aldrich (St. Louis, USA). Briefly, cells were washed twice in ice-cold PBS and lysed in a radioimmunoprecipitation assay buffer containing 50 mM Tris/HCl (pH 7.5), 150 mM NaCl, 0.1% sodium dodecyl sulfate (SDS), 1% Triton X-100, 1% sodium deoxycholate, and protease inhibitor mixture. After sonification, the lysate was centrifuged, and the supernatant was recovered and loaded onto a 12% SDS-polyacrylamide gel for electrophoresis.
(In general: A western blot detects proteins with antibodies after separation by electrophoresis.)

Data set [4] in a line: Hepatotoxicity assay, serum ALT and AST. The note with it: mice bearing MCF7/Dox tumors. It is filed as in vivo. How it is done:
Tumors are shown (right). […] C1 injection led to a 58% reduction in tumor growth, which was statistically greater than the reductions seen in the case of C2 (16%), C3 (9%), C4 (6%) and DMSO (0%) tested under otherwise identical conditions.
Blood samples of each mice were centrifuged at 3,000 rpm for 10 min at 4° C. to produce serum. Then, the activities of ALT and AST in serum were analyzed using the AST and ALT Activity Assay Kits (MAK055, MAK052, Sigma) according to the manufacturer's instructions.

Data set [5] relates to MCF7/Dox cells. Put plainly: Cell viability, C1 versus Dox+DCA. In kind it is cell-based, human. The settings on record: resistant MCF7/Dox cells. Here is the method:
(§1) Data represent the mean±SD. *p<0.05. […] Cells were seeded in 24 well plates at 2×10^5 cells per well and were allowed to adhere for at least 24 h, growth medium was replaced with medium containing C1 or its analogues at the indicated concentrations and times, and cell viability was assessed via the WST-1 assay (Roche Diagnostics, Laval, QC, Canada). For the colony formation assay, cells were seeded in 6-well plates. After 24 h, cells were maintained in the presence of each probe or vehicle dimethyl sulfoxide (DMSO) for 10 days. Colonies were fixed with methanol for 10 min and stained with 0.05% crystal violet in 20% ethanol.

The test system of data set [6] is MCF7 cell line. Description: Cell viability, C1 versus Dox+DCA. It is filed as cell-based, human. Here is the method: as §1
Data set [7] has as its system cancer cells (A549 and HepG2), normal cells (NHDF and IMR90). Description: Cellular uptake of compounds in normal and cancer cells. It is filed as cell-based, human. The settings on record: 5 μM, 6 h, A549, HepG2 vs NHDF. How it is done: Cells were treated with 5 μM of each compound for 6 h. Fluorescence intensities were determined using SpectraMAX 13;
To analyze the cellular fluorescence levels upon compound treatment, cells were seeded in plates 1 day before treatment with the compounds. Cells were then treated with each compound for the indicated dose or time course. After the experiment, cells were washed with ice-cold PBS, trypsinized, and centrifuged. The cell pellet was re-suspended in 300 μL of PBS and then analyzed using a multiplate reader (SpectraMAX I3x). The results were normalized according to the number of cells.

As to `COc1cccc2c1C(=O)c1c(O)c3c(c(O)c1C2=O)C[C@@](O)(C(=O)CO)C[C@@H]3OC1C[C@H](NC(=O)OC(Cc2cn(CCCCCC[P+](c3ccccc3)(c3ccccc3)c3ccccc3)nn2)c2ccc(NC(=O)C(Cl)Cl)cc2)[C@H](O)[C@H](C)O1.[Br-]` (stereo partly shown) [C1], the mitochondrial localization result in data set [1] is “exhibited mitochondrial localization in both MCF7 and MCF7/Dox cells”. Besides, the “decrease in mitochondrial membrane potential Δψm” value in data set [2] is given as “ca. 96%”. In data set [3], the “effect on p21^Waf1 and phosphorylated PDH levels” value was “up- and downregulation of p21^Waf1 and phosphorylated PDH levels”. In data set [4], the “toxicity from ALT and AST levels in blood serum” value was “no significant toxicity”. For the same compound, in data set [5], the cytotoxic effect entry is “appreciable cytotoxic effect”. For the same compound, in data set [6], the “reduction in cell viability” value is “comparable reduction in cell viability”. Besides, the “tumor cell selectivity of cellular uptake” value in data set [7] is reported as “taken up specifically by cancer cells”.
